Laboratory results: US10828275B2, “Selective targeting of procoagulant platelets” (NewSouth Innovations Pty Limited, priority 2014, dated 2020)
“Also recorded” adds a separate entry of the source.

Tests used:
[1] = tested on: agonist stimulated platelets; experiment: Platelet procoagulant potential, Calibrated Automated Thrombogram; type: cell-based, human; conditions: 100 mg aspirin daily for 7 days; thrombin and collagen
Procedure: FIG. 5. […] A. Washed human platelets were untreated or stimulated with thrombin (0.1 units/mL) and collagen (5 μg/mL) or the mitochondrial membrane disrupter CCCP (4 μM). Mitochondrial transmembrane potential was measured using the cationic dye, JC-1. The ratio of distribution of JC-1 between the mitochondria (red fluorescence) and cytosol (green fluorescence) reflects mitochondrial transmembrane potential. […] B-C. […] E. Washed human platelets were preincubated with CaCl2 for 15 min and then untreated or stimulated with thrombin (0.1 units/mL) and collagen (5 μg/mL).
FIG. 8. […] Platelets from healthy volunteers were examined before and after 7 days of aspirin ingestion. Washed platelets were activated with thrombin (0.1 units/mL) and collagen (5 μg/mL) and GSAO+/P-selectin+ necrotic platelets measured by flow cytometry (part A) and procoagulant potential assessed using the Calibrated Automated Thrombogram (part B).
Thrombin generation capacity of agonist stimulated platelets was measured using the Calibrated Automated Thrombogram as described (Hemker et al., 2003) using the Fluorskan Ascent (Thermo Scientific). Agonist stimulated platelets were washed in phosphate-buffered saline and resuspended into the donor's own platelet poor plasma at 5×10^4/μL and recombinant tissue factor ([…], Innovin, Dade Behring) was added. Assays were performed in triplicate.

[2] = tested on: washed platelets from healthy volunteers; experiment: Aspirin study: GSAO+/P-selectin+ necrotic platelets ex vivo (flow cytometry); type: cell-based, human; conditions: 100 mg aspirin daily for 7 days; thrombin and collagen
Procedure: FIG. 8. Aspirin ingestion sensitizes platelets to cyclophilin D inhibition in human subjects. Platelets from healthy volunteers were examined before and after 7 days of aspirin ingestion. Washed platelets were activated with thrombin (0.1 units/mL) and collagen (5 μg/mL) and GSAO+/P-selectin+ necrotic platelets measured by flow cytometry (part A) and procoagulant potential assessed using the Calibrated Automated Thrombogram (part B).
The standard pharmacological means for prevention of cardiovascular events is by inhibiting platelet cyclooxygenase-1 with aspirin, which suppresses platelet activation.
This study was approved by the University of New South Wales Human Research Ethics Advisory Committee (HC132219), conducted according to the Declaration of Helsinki and all volunteers gave written informed consent. Five healthy volunteers aged 25-45 years were recruited. Prior to starting the study, all volunteers abstained from aspirin or non-steroidal anti-inflammatory drugs (NSAIDS), or other anti-platelet therapies for 14 days. Volunteers received 100 mg enteric coated aspirin daily for 7 days. Blood was collected and washed platelets assessed at baseline, day 0, and again at day 7 of treatment.

[3] = tested on: platelets of coronary artery disease patients; experiment: Whole blood platelet necrosis assay in coronary artery disease patients; type: in vivo, human; conditions: thrombin or thrombin/collagen stimulation
Text: The whole blood platelet necrosis assay was validated by measuring formation of procoagulant platelets in response to well-known agonist in humans and mice. The assay was able to reproducibly measure platelet propensity to necrosis in healthy human volunteers as well as in patients with ischaemic heart disease within a clinical setting.
Experiments using genetically modified mice indicate that formation of procoagulant platelets is dependent on the cyclophilin D necrosis pathway, but independent of the BclXL apoptosis pathway. In healthy volunteers, the strong platelet agonists, thrombin and collagen, induce formation of procoagulant platelets via a mechanism that is largely independent of protease activated receptors. Patients with coronary artery disease have a heightened procoagulant platelet potential and are sensitised to thrombin and ADP stimulation. The procoagulant platelet potential in these patients is insensitive to aspirin, which targets platelet aggregation, but modified by P2Y12 antagonists.
To examine the effect of CAD on procoagulant platelet potential, non-heparinized bloods from patients with exposure to either aspirin only or no antiplatelet medications within 7 days of the procedure were assayed. […] There were no statistically significant differences between the groups in the absence of agonist stimulation.

## CC(=O)Oc1ccccc1C(=O)O [aspirin]
[1]
  change in procoagulant potential of activated platelets: no change
[2]
  change in GSAO+/P-selectin+ necrotic potential of activated platelets: no change
[3]
  effect on necrotic / procoagulant platelet potential in patients: did not affect; also recorded: insensitive
